Results published in patent US5242945A, “Tetronic and thiotetronic acid derivatives as phospholipase A2 inhibitors” (American Home Products Corporation, priority 1991, dated 1993).
Read-outs that look alike come from different tables or passages of the source. Blank lines part the entries; values can stand above or below the compound they belong to.

Assays:
[1] = test system: purified PLA2, from the diamond back cotton mouth snake (A. piscivorus piscivorus); experiment: in vivo PLA2 murine paw edema assay; parameters: species or system A. piscivorus piscivorus PLA2 in CD-1 mice; settings: p.o.; at +10 min
Experimental: The ability of the compounds of the invention to inhibit paw edema induced by the exogenous administration of PLA2 is measured in the in vivo PLA2 murine paw edema assay.
Non-fasted, male CD-1 mice (8 weeks old; 31-36 grams) are placed in plastic boxes in groups of six. The right hind paw volume is measured using mercury plethysmography (zero time). Compounds are dosed orally (0.5 mL of 0.5% Tween-80) 1 or 3 hours prior to PLA2 injection or intravenously (0.2 mL in 0.3% dimethylsulfoxide/saline) 3 minutes prior to PLA2 injection. A solution of purified PLA2, from the diamond back cotton mouth snake (A. piscivorus piscivorus) is prepared in saline at a concentration of 6 μg/mL. Fifty (50) μL (0.3 μg) of this PLA2 solution is injected subcutaneously into the right hind paw with a plastic 1 mL plastic syringe (27 gauge, 1" needle). Paw volume of the injected paw is measured again at 10 minutes, 30 minutes and 60 minutes after PLA2 injection. Animals are euthanized with CO2 at the completion of the study.
The paw edema is calculated by subtracting the zero time volume from the volume recorded at each time period. Mean paw edema for each treatment group is then calculated and expressed as (μL±S.E.). Drug effects are expressed as a percent change from control (vehicle) values. Statistical significance is determined by a one-way analysis of variance with LSD comparison to control (p<0.05). ED50 's are determined using […].

[2] = test system: purified PLA2, from the diamond back cotton mouth snake (A. piscivorus piscivorus); experiment: in vivo PLA2 murine paw edema assay; parameters: species or system A. piscivorus piscivorus PLA2 in CD-1 mice
[3] = test system: lipoxygenase (LTB4 or 5HETE synthesis); experiment: inhibition of LTB4 and 5-HETE synthesis by rat glycogen-elicited polymorphonuclear leukocytes; assay type: cell-based, rat (female Wistar); settings: Leukocyte, rat PMN; for inhibition at 10 µM: + with * denotes potentiation
Description: This is especially true with respect to 5,12-diHETE, which is also denoted as LTB4 [see Ford-Hitchinson, J. Roy. Soc. Med., 74, 831 (1981)]. Compounds which inhibit the PLA2 -mediated release of arachidonic acid thereby effectively prevent the oxidation of arachidonic acid to the various leukotriene products via the lipoxygenase cascade. Accordingly, the specificity of action of PLA2 inhibitors can be determined by the activity of test compounds in this assay, which measures the ability of compounds to inhibit the synthesis of LTB4 and 5-HETE by rat glycogen-elicited polymorphonuclear leukocytes (PMN) in the presence of exogenous substrate.
(§1) Rat polymorphonuclear leukocytes (PMNs) are obtained from female Wistar rats (150-200 g) which receive an injection of 6% glycogen (10 ml i.p.). Rats are sacrificed 18-24 hours post injection by CO2 asphyxiation and the elicited cells are harvested by peritoneal lavage using physiological saline (0.9% NaCl). The exudate is centrifuged at 400 xg for 10 minutes. The supernatant fluid is discarded and the cell pellet is resuspended to a concentration of 2.0×10^7 cells/mL in HBSS containing Ca^++ and Mg^++ and 10 μM L-cysteine.
(§2) To 1 mL aliquots of cell suspension, test drugs or vehicle are added, then preincubated at 37° C. for 10 minutes. A23187 (1 μM), [^3 H]-AA (3.0 μCi/mL) and unlabeled AA (1 μM) are then added and the samples are further incubated for 10 minutes. The reaction is terminated by centrifugation and pelleting cells. Supernatants are then analyzed by HPLC analysis on a 15 cm×4.6 mm ID supelcosil LC-18 (Supelco)(3M) column, using a two solvent system at a flow rate of 1.4 mL total flow as follows:
Injections: 140 μL of each supernatant is injected directly onto column and ^3 H arachidonic acid metabolites are monitored using an on-line radioactivity detector (Ramona, IN/US, Fairfield, N.J.).
Co-chromatography with standard [^3 H] leukotriene B4 (LTB4) in medium of stimulated PMN exposed to drug is compared to that found in medium of stimulated cells exposed to no drug, generating percent inhibition.
Results are expressed as percent inhibition at a given compound dose or as an IC50 value.

[4] = test system: cyclooxygenase (PGE2 or TxB2 synthesis); experiment: inhibition of synthesis of cyclooxygenase products PGE2 and TxB2 by rat polymorphonuclear leukocytes; assay type: cell-based, rat (female Wistar); settings: Leukocyte, rat PMN; for inhibition at 10 µM: + with * denotes potentiation
Experimental: as §1, §2
In this assay, the procedure of Example 58 is carried out as described. However, in order to determine cyclooxygenase activity, the samples are co-chromatographed with authentic reference [^3 H]-TxB2 or [^3 H]-PGE2.
The results are calculated as in Example 58 and presented below: […]

human platelet PLA2 = target: T1, human platelet PLA2 (Homo sapiens, UniProt P14555); experiment: in vitro isolated phospholipase A2 assay, human platelet PLA2; assay type: biochemical; settings: at 10 μM; + values given without explanation; read-out: % Inhibition HP (human platelet)
T1 construct: platelet acid extract PLA2; from tissue; host or cells: human platelets, semipurified acid extract
T1 sequence (P14555 21-144): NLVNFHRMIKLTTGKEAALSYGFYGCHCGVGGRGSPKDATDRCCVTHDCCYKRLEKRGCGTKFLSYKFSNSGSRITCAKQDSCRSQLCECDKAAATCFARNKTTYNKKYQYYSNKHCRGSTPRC
Experimental: (§3) The compounds of the invention are tested in an in vitro isolated phospholipase A2 assay to determine the ability of the test compounds to inhibit the release of arachidonic acid from an arachidonic acid-containing substrate by the action of phospholipase A2 enzyme from human and non-human sources.
(§4) Into a 15 mL polypropylene tube are added the following:
(§5) ^3 H-AA E. coli substrate^1
(§6) Tris-HCl (0.5 M) pH 7.5^3
(§7) PLA2 25 Volume yielding 12%
(§8) 100 hydrolysis in 10 min.
(§9) *pre-incubate at room temperature 30 min prior to substrate addition.
(§10) ^6 Two human PLA2 enzymes are used: a) Semipurified human
(§11) platelet acid extract PLA2 (in 10 mM sodium acetate buffer, pH 4.5).
(§12) Remove protein precipitate by centrifugation at about 2200 rpm for 10
(§13) minutes. b) Purified human synovial fluid.
(§14) Incubate the 100 μL reaction mixture for 10 minutes at 37° C. in a shaking water bath. The reaction is terminated by the addition of 2 mL tetrahydrofuran, followed by vortexing. NH2 columns (100 μg/mL--Analytichem International) are conditioned with 0.5 mL tetrahydrofuran followed by 0.5 mL tetrahydrofuran/water (2 mL:0.1 mL, v/v).
(§15) The sample is loaded onto the columns and slowly drawn through them. The hydrolyzed arachidonic acid retained in the columns is eluted therefrom with 1 mL tetrahydrofuran/glacial acetic acid (2%). The arachidonic acid is transferred to scintillation vials and quantitated by β-counting analysis. A "total counts" sample is prepared by pipetting 25 μL ^3 H-arachidonate E. coli directly into a scintillation vial to which is added 1 mL tetrahydrofuran. 10 mL aquasol (scintillation cocktail) is added to all samples.

[5] = target: T2, human synovial fluid PLA2 (Homo sapiens, UniProt P14555); experiment: in vitro isolated phospholipase A2 assay, human synovial fluid PLA2; assay type: biochemical; settings: for inhibition at 10 µM: + values given without explanation, read-out: % Inhibition HSF (human synovial fluid)
T2 construct: Purified human synovial fluid; from tissue; host or cells: human synovial fluid
T2 sequence (P14555 21-144): T1 sequence (P14555 21-144)
Experimental: as §3, §4, §5, §6, §7, §8, §9, §10, §11, §12, §13, §14, §15

[6] = test system: platelet-activating factor (PAF) biosynthesis in human polymorphonuclear neutrophils (PMN); experiment: platelet-activating factor biosynthesis in human polymorphonuclear neutrophils (in vitro phospholipase A2 assay); assay type: cell-based; settings: Homo sapiens, Polymorphonuclear neutrophil; in this assay (PAF or LTB4 readout not stated)
Experimental: The compounds of the invention are tested in an in vitro phospholipase A2 assay to determine the ability of the compounds to inhibit the biosynthesis of platelet-activating factor and LTB4 in purified human neutrophils.
A leukocyte enriched blood sample obtained from a healthy donor is procured by leukophoresis using a Haemonetics model 30+ blood processor (Biological Specialties, Inc., Lansdale, Penn.). The top "platelet-rich" layer is removed after a low speed spin (35 xg, 15 min, 25° C.) of the sample. The remaining cell suspension is centrifuged (400 xg, 10 min, 25° C.) to sediment the remaining cells. The supernatant is discarded and the cell pellet resuspended in 120 ml HBSS (without Ca^++ /Mg^++). The cell suspension is subjected to ficoll-hypaque sedimentation (Histopaque 1077, 400 xg, 30 min, 25° C.). Contaminating erythrocytes are lysed by hypotonic shock (1 min). The cells are then washed once with 40 ml of HBSS and resuspended with HBSS (without Ca^++ /Mg^++) to a concentration of 2.5×10^7 cells/ml for further use. Greater than 95% purity is obtained, as assessed by microscopic examination.
One ml of human PMN (2.5×10^7 cells/ml) is incubated with vehicle or drugs (10 μl) for 10 minutes at 30° C. After preincubation, an equal volume of HBSS (1 ml) containing 2.4 mM CaCl2, 6 μM calcium ionophore A23187 and 50 μCi [^3 H]-acetate is then incubated at 30° C. for 15 minutes. An aliquot (100 μl) of the reaction mixture is taken out and mixed with 900 μl of 15% ethanol. LTB4 is extracted by using solid phase extraction on reverse phase C18 columns to remove excess [^3 H]-acetate and PAD. The C18 column is prewashed once with 2 ml of ethanol and water. The sample aliquot is acidified with 0.1N HCl to pH 3 before applying to the column. The column is then washed with 2 ml of water followed by 2 ml of 15% ethanol and 2 ml of petroleum ether to remove excess labeled acetate. The sample is eluted with 2 ml of ethyl acetate. The collected samples are dried with nitrogen and resuspended in 0.5 ml RIA buffer. The quantity of LTB4 in the sample is obtained from RIA determination. For PAF determination, the reaction is terminated by addition of 5 ml chloroform:methanol:acetic acid (2:1:0.04, v/v/v). [^3 H]-PAF is obtained by Bligh and Dyer extraction. The chloroform phase is removed and dried under nitrogen. The residue is redissolved in 75 μl of chloroform:methanol (80:20, v/v). [^3 H]-PAF is resolved from other phospholipids by TLC on RPC18 plates with a solvent system of chloroform:methanol:water (2:3:1, v/v/v) and is quantitated using a Berthold automated TLC linear analyzer.
Data presented are the mean +/- s.d. of the values relative to control A23187 stimulated cells for each experiment assayed in triplicate. Percent inhibition when used is calculated as:
% Inhibition=100-[(x.div.Control)×100].
Dose response analysis is performed by non-linear regression analysis for curve fitting and IC50 determination.

Compound: COc1cccc2c1cc([N+](=O)[O-])c1c(C(=O)O)cc3c(c12)OCO3 [Aristolochic Acid, reference compound]
ED50 at +10 min. [1]: Not Active

Compound: CN1CCC(=C2c3ccccc3C=Cc3ccccc32)CC1 [Cyproheptadine, reference compound]
ED50 at +10 min. [1]: 3.1 mg/kg

Compound: C[C@@H]1C[C@H]2[C@@H]3CCC4=CC(=O)C=C[C@]4(C)[C@@]3(F)[C@@H](O)C[C@]2(C)[C@@]1(O)C(=O)CO [Dexamethasone, reference compound]
ED50 at +10 min. ([2]; p.o. 3 hr, at +10 min): 10 mg/kg

inhibition at 10 µM (human platelet PLA2): 3%
IC50 ([5]; Table IV, read-out: IC50 HSF (human synovial fluid)): 10.5 µM
inhibition at 10 µM [5]: 77%
Compound: O=C(/C=C/c1ccccc1)C1=C(O)COC1=O [Example 8, (E)-4-Hydroxy-3-(3-(phenyl)-1-oxo-2-propenyl)-2(5H)-furanone]
inhibition at 10 µM ([3]; read-out: % Inhibition LTB4): 10%
inhibition at 10 µM ([4]; read-out: % Inhibition TxB2): 1%

Compound: CCC/C=C\CCCCCCCCC(=O)C1=C(O)COC1=O [Example 23, 4-Hydroxy-3-((Z)-1-oxo-10-tetradecenyl)-2(5H)-furanone]
inhibition at 10 µM ([3]; read-out: % Inhibition 5-HETE): 93%
inhibition at 10 µM ([3]; read-out: % Inhibition LTB4): 83%
inhibition at 10 µM ([4]; read-out: % Inhibition PGE2): 1%
inhibition at 10 µM ([4]; read-out: % Inhibition TxB2): 8%
inhibition at 10 µM (human platelet PLA2): 52.7%
inhibition at 10 µM [5]: 44%
% Change in Edema 30 min ([2]; 1 mg/kg i.p.): -41%
% Change in Edema 60 min ([2]; 1 mg/kg i.p.): -20%
% Change in Edema 30 min ([2]; 10 mg/kg i.p.): -48%
% Change in Edema 60 min ([2]; 10 mg/kg i.p.): -28%

Compound: CCCCCC/C=C\CCCCCCCC(=O)C1=C(O)COC1=O [Example 26, 4-Hydroxy-3-((Z)-1-oxo-9-hexadecenyl)-2(5H)-furanone]
inhibition at 10 µM ([3]; read-out: % Inhibition 5-HETE): 85%
inhibition at 10 µM ([3]; read-out: % Inhibition LTB4): 82%
inhibition at 10 µM ([4]; read-out: % Inhibition PGE2): 6%
inhibition at 10 µM ([4]; read-out: % Inhibition TxB2): 1%
inhibition at 10 µM (human platelet PLA2): 24.4%
inhibition at 10 µM [5]: 1.7%
% Change in Edema 30 min ([2]; 1 mg/kg i.p.): -62%
% Change in Edema 60 min ([2]; 1 mg/kg i.p.): -38%
% Change in Edema 30 min ([2]; 10 mg/kg i.p.): -67%
% Change in Edema 60 min ([2]; 10 mg/kg i.p.): -43%

Compound: COc1ccc2cc([C@H](C)C(=O)O)ccc2c1 [Naproxen, reference compound]
ED50 at +10 min. [1]: 18 mg/kg

Compound: CCc1cccc2c3c([nH]c12)C(CC)(CC(=O)O)OCC3 (stereo not drawn) [etodolac, reference compound]
inhibition at 0.5 µM ([3]; at 0.5 μM): 21%
inhibition at 0.5 µM ([4]; at 0.5 μM): 100%

IC50 [6]: 1 µM
Compound: CC(=O)O[C@H]1C[C@@H]2[C@@]3(C)CCCC(C)(C)[C@@H]3CC[C@@]2(C)[C@@H]2CC=C(C=O)[C@H](C=O)[C@@]12C [scalaradial, reference compound]

Compound: Luffarrellolide [reference compound]
ED50 at +10 min. [1]: Not Active
